Measurements taken from US20130130306A1, “ZN (II) BASED COLORIMETRIC SENSOR AND PROCESS FOR THE PREPARATION THEREOF” (COUNCIL OF SCIENTIFIC & INDUSTRIAL RESEARCH, priority 2010, published 2013).
Values joined by “and” are separate entries in the source; they are usually repeats but may differ in a detail not shown here. Identical values can stand only once. “Also recorded” adds a separate entry of the source.

Tests used:
[1] = UV-vis spectral response and spectrophotometric titration with ATP; format: binding; conditions: for binding constant for the formation of the complex L.Zn-ATP: spectrophotometric titration, pH 7.2, 10 mM HEPES, 25° C.
Experimental: In order to examine the binding behaviour of the Zn-complex (L.Zn) (Scheme 1, Formula 1A) to various important anions (like ATP, CTP, ADP, AMP, PPi, H2PO4^−, SO4^2−, CH3CO2^−, I^−, Br^−, Cl^− and F^−) the following experiment was conducted. A solution (˜21 mM) for of sodium salts of ATP, CTP, ADP, AMP, PPi, H2PO4^−, SO4^−, CH3CO2^−, I^−, Br^−, Cl^−, and F^− were prepared using respective salt in 10 mM HEPES buffer solutions (pH 7.2) and was stored for use. Further, a solution (44.35 μM) of the compound L.Zn (Scheme 1, Formula 1A) was prepared using doubly-distilled and deionized water and stored. These stored solutions were used on the day of preparation of the solution for experiment.
A test solution was used after 1 mL of a probe storage solution (the previously prepared and stored solution of 44.35 μM for the compound (L.Zn) (Scheme 1, Formula 1A of the present invention) was put in a 10 mL test tube, such that the final concentration of the probe storage solution was 8.87 μM. To this 4 mL of each of the previous prepared and stored solutions of ATP and other anions (CTP, ADP, AMP, PPi, H2PO4^−, SO4^2−, CH3CO2^−, I^−, Br^−, Cl^− and F^−) was added to the test tube such that the aliquot of each of the solutions was (17 mM). Then the resultant solution was used for UV-vis spectral measurement after appropriate base line correction using a double beam spectrophotometer (Shimadzu UV-3101 PC) and the results thereof are shown in FIG. 1.
Thus a red shift of 40 nm was observed on addition of the solution of ATP (˜1920 equiv.) to the solution of L.Zn (Scheme 1, Formula 1A). […]
A solution of L.Zn (Scheme 1, Formula 1A) (8.87 μM) in aqueous medium was treated with excess amount of ˜500 μM of different phosphate anions like H2PO4^−, PPi, AMP, ADP, ATP and CTP. […] Thus L.Zn (Scheme 1, Formula 1A) can bind ATP selectively among various phosphate anions and the color change associated with the binding of ATP can be detected through naked eye (FIG. 2). […]
A 1.0 mL of stored solution of L.Zn (Scheme 1, Formula 1A) ([L.Zn]=47.3 μM) was put in a test-tube, such that, the final concentration of the L.Zn solution was 9.46 μM. To this varying amount of ATP (0.1-4 mL of the stored ATP solution (21.6 mM) was added. Resulting solution was then diluted by addition of a 10 mM HEPES buffer solution (pH 7.2) maintaining total volume of the resultant aliquot of 5 mL, which was used for spectrophotometric measurements using a double beam spectrophotometer and quartz spectrophotometric cell (3.5 mL capacity). The total spectral change was measured using a double beam spectrophotometer (Shimadzu UV-3101 PC) after appropriate base line correction. Slit width for all experiments during this titration was kept unchanged at 0.2 nm and the results thereof are shown in FIG. 3. […]

[2] = system: living microbes (eukaryotes and prokaryotes); assay: Toxicity and viability of cells after staining; format: cell-based
Excerpt: We also explored the possibility of using L.Zn/L.Zn.α-CD as the staining agent for prokaryotes (Gram +ve and Gram −ve bacterial cells). […] As expected stained cells for Gram +ve bacteria appeared longer as compared to those of the stained Gram −ve bacteria. The difference in the staining intensity for two different bacteria with the L.Zn.α-CD (Scheme 2) could be much better understood after going into the depth of cell biology of each bacterial cells and the detailed biochemistry involved while staining; besides, difference in cell structure and cell wall composition of the respective bacteria. […] Changes on the cell surfaces on binding of the dye, L.Zn (Scheme 1, Formula 1A) were also evident from the SEM images recorded for Gram −ve and Gram +ve bacteria, in absence and presence of staining agent (FIGS. 11C to 11F). Difference in the contrasts in the SEM images of the sample surfaces also signifies the non-homogeneous chemical nature of the sample surface. Relatively brighter cell exterior for Gram −ve bacteria, as compared to the Gram +ve one indicates the accumulation of higher negative charge on the extra-cellular surface. […] The growth profile of Eukaryotic Yeast cells (Saccharomyces cerevisiae) and Prokaryotic bacterial cells ([…]) in an aqueous culture medium in absence and presence of L.Zn (Scheme 1, Formula 1A) are shown in FIG. 12. Change in absorbance (at λmax=600 nm) vs time (t) was plotted up to 30 h; as no appreciable change in growth was observed thereafter. […] FIGS. 12a, 12c and 12e show the actual growth curve of Saccharomyces cerevisiae, Pseudomonas fluorescence and Bacillus megaterium, respectively with time. While, FIGS. 12b, 12d and 12f show relative build up of ATP in cytoplasm with time for Saccharomyces cerevisiae, Pseudomonas fluorescence and Bacillus megaterium, respectively in presence of L.Zn (Scheme 1, Formula 1A) (D1) and L.Zn.α-CD (Scheme 2) (D2). […]

For `CN(C)c1ccc(N=Nc2ccc(S(=O)(=O)N3CCCNCCNCCCNCC3)cc2)cc1.O=[N+]([O-])[O-].O=[N+]([O-])[O-].[Zn+2]` [L.Zn], the “color change on addition of ATP (naked eye)” value ([1]; L.Zn 8.87 μM in aqueous medium, ~500 μM anion) was “significant color change”, the “shift of absorption maxima on binding to ATP” value ([1]; from 463 nm to 503 nm, pH 7.2, ~1920 equiv. ATP) was 40 nm and the “binding constant for the formation of the complex L.Zn-ATP” value [1] was 978 ± 15 M⁻¹ and 978 ± 4 M⁻¹. The “binding constant for the formation of the complex L.Zn-ATP” value ([1]; listed as compound of formula 1A) was 978 ± 4 M⁻¹, the “growth of stained cells in their respective media” value ([2]; after staining) was “stained cells were found to grow in their respective media” and the “toxicity to living cells” value ([2]; eukaryotes and prokaryotes, cell proliferation and growth after staining) was “non-toxic; also recorded: non toxic”. For the same compound, the “viability of stained cells, hanging drop in concavity slide” value ([2]; light microscope, until 3 h) was “cell growth, cell division, as well as their motility could be observed”.
